Results: ChEMBL document CHEMBL1147599 (Bioorg Med Chem Lett, 2004)

target: T1, Neuropeptide Y receptor type 2 (Homo sapiens, UniProt P49146); assay: Binding affinity towards the NPY Y2 receptor
T1 sequence (P49146 whole entry): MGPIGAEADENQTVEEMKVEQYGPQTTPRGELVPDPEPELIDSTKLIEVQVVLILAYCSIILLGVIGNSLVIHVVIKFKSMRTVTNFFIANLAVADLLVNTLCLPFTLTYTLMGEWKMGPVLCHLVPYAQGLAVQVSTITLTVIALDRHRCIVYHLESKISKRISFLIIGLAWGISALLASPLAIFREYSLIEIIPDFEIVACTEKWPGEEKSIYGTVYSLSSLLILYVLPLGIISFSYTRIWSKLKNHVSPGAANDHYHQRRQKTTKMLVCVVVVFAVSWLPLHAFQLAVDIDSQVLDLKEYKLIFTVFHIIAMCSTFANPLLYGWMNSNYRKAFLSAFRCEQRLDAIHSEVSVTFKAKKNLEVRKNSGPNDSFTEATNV

Structure (SMILES) | IC50 [µM]
CC(=O)N1CCc2ccc(N(C3CCN(Cc4ccccc4)CC3)S(=O)(=O)/C=C/c3ccccc3)cc21 | 30
CC(=O)N1CCc2ccc(N(C(=O)/C=C/c3ccccc3)C3CCN(Cc4ccccc4)C3)cc21 (stereo not drawn) | 17.5
CC(=O)N1CCc2ccc(N(C/C=C/c3ccccc3)C3CCN(Cc4ccccc4)CC3)cc21 | 30
